Experimental data: the NIST ThermoML archive (doi:10.1016/j.jct.2012.08.010)

Experiment: refractive index (Na D-line) (dimensionless); φn = volume fraction of the nth substance listed
Details: 101 kPa, Liquid, Standard Abbe refractometry

C=C[Si]1(C)O[Si](C)(C=C)O[Si](C)(C=C)O[Si](C)(C=C)O1 (stereo not given) [2,4,6,8-tetramethyl-2,4,6,8-tetravinylcycloterasiloxane] + Cc1ccc(C)cc1
Details | refractive index
288.15 K, φ1 = 0.13 | 1.49061
288.15 K, φ1 = 0.2483 | 1.48349
288.15 K, φ1 = 0.3379 | 1.47804
288.15 K, φ1 = 0.4151 | 1.47284
288.15 K, φ1 = 0.4853 | 1.46901
288.15 K, φ1 = 0.5501 | 1.46502
288.15 K, φ1 = 0.5978 | 1.46207
288.15 K, φ1 = 0.6522 | 1.45876
288.15 K, φ1 = 0.6974 | 1.45592
288.15 K, φ1 = 0.738 | 1.45339
288.15 K, φ1 = 0.7753 | 1.45103
288.15 K, φ1 = 0.8083 | 1.44898
288.15 K, φ1 = 0.8395 | 1.44696
288.15 K, φ1 = 0.8652 | 1.44534
288.15 K, φ1 = 0.8938 | 1.44353
288.15 K, φ1 = 0.9184 | 1.44195
288.15 K, φ1 = 0.9358 | 1.44086
288.15 K, φ1 = 0.9803 | 1.43802
288.15 K, φ1 = 1 | 1.43674
298.15 K, φ1 = 0.13 | 1.48533
298.15 K, φ1 = 0.2483 | 1.47825
298.15 K, φ1 = 0.338 | 1.47286
298.15 K, φ1 = 0.4151 | 1.46772
298.15 K, φ1 = 0.4854 | 1.46393
298.15 K, φ1 = 0.5501 | 1.45998
298.15 K, φ1 = 0.5979 | 1.45705
298.15 K, φ1 = 0.6522 | 1.45378
298.15 K, φ1 = 0.6975 | 1.45098
298.15 K, φ1 = 0.7381 | 1.44845
298.15 K, φ1 = 0.7754 | 1.44612
298.15 K, φ1 = 0.8084 | 1.44409
298.15 K, φ1 = 0.8396 | 1.44211
298.15 K, φ1 = 0.8653 | 1.44053
298.15 K, φ1 = 0.8939 | 1.43869
298.15 K, φ1 = 0.9185 | 1.43716
298.15 K, φ1 = 0.9358 | 1.43605
298.15 K, φ1 = 0.9803 | 1.43326
298.15 K, φ1 = 1 | 1.43202
308.15 K, φ1 = 0.13 | 1.47996
308.15 K, φ1 = 0.2484 | 1.47298
308.15 K, φ1 = 0.338 | 1.46767
308.15 K, φ1 = 0.4152 | 1.46256
308.15 K, φ1 = 0.4855 | 1.45883
308.15 K, φ1 = 0.5502 | 1.45494
308.15 K, φ1 = 0.5979 | 1.45204
308.15 K, φ1 = 0.6523 | 1.44878
308.15 K, φ1 = 0.6975 | 1.446
308.15 K, φ1 = 0.7381 | 1.44353
308.15 K, φ1 = 0.7754 | 1.44126
308.15 K, φ1 = 0.8084 | 1.4392
308.15 K, φ1 = 0.8396 | 1.43729
308.15 K, φ1 = 0.8653 | 1.4357
308.15 K, φ1 = 0.8939 | 1.43391
308.15 K, φ1 = 0.9185 | 1.43239
308.15 K, φ1 = 0.9359 | 1.43132
308.15 K, φ1 = 0.9803 | 1.42853
308.15 K, φ1 = 1 | 1.4273
318.15 K, φ1 = 0.1301 | 1.47462
318.15 K, φ1 = 0.2484 | 1.46772
318.15 K, φ1 = 0.3381 | 1.46245
318.15 K, φ1 = 0.4152 | 1.45742
318.15 K, φ1 = 0.4855 | 1.45373
318.15 K, φ1 = 0.5503 | 1.4499
318.15 K, φ1 = 0.598 | 1.44702
318.15 K, φ1 = 0.6523 | 1.4438
318.15 K, φ1 = 0.6976 | 1.44108
318.15 K, φ1 = 0.7381 | 1.43861
318.15 K, φ1 = 0.7755 | 1.43636
318.15 K, φ1 = 0.8084 | 1.43432
318.15 K, φ1 = 0.8396 | 1.43244
318.15 K, φ1 = 0.8653 | 1.43087
318.15 K, φ1 = 0.8939 | 1.42911
318.15 K, φ1 = 0.9185 | 1.42761
318.15 K, φ1 = 0.9359 | 1.42653
318.15 K, φ1 = 0.9803 | 1.42379
318.15 K, φ1 = 1 | 1.42257
328.15 K, φ1 = 0.1301 | 1.46923
328.15 K, φ1 = 0.2484 | 1.46244
328.15 K, φ1 = 0.3381 | 1.45725
328.15 K, φ1 = 0.4152 | 1.45229
328.15 K, φ1 = 0.4855 | 1.44864
328.15 K, φ1 = 0.5503 | 1.44483
328.15 K, φ1 = 0.598 | 1.44202
328.15 K, φ1 = 0.6523 | 1.43879
328.15 K, φ1 = 0.6976 | 1.43612
328.15 K, φ1 = 0.7382 | 1.43369
328.15 K, φ1 = 0.7755 | 1.43148
328.15 K, φ1 = 0.8085 | 1.42949
328.15 K, φ1 = 0.8396 | 1.42761
328.15 K, φ1 = 0.8653 | 1.42605
328.15 K, φ1 = 0.8939 | 1.42343
328.15 K, φ1 = 0.9185 | 1.42282
328.15 K, φ1 = 0.9359 | 1.42178
328.15 K, φ1 = 0.9803 | 1.41906
328.15 K, φ1 = 1 | 1.41785
